In ChEMBL document CHEMBL5291721, “A preclinical secondary pharmacology resource illuminates target-adverse drug reaction associations of marketed drugs” (Nat Commun, 2023):

Key:
[1] = biological target: T1, 5-hydroxytryptamine receptor 3A (Homo sapiens, UniProt P46098); format: functional
T1 sequence (P46098 whole entry): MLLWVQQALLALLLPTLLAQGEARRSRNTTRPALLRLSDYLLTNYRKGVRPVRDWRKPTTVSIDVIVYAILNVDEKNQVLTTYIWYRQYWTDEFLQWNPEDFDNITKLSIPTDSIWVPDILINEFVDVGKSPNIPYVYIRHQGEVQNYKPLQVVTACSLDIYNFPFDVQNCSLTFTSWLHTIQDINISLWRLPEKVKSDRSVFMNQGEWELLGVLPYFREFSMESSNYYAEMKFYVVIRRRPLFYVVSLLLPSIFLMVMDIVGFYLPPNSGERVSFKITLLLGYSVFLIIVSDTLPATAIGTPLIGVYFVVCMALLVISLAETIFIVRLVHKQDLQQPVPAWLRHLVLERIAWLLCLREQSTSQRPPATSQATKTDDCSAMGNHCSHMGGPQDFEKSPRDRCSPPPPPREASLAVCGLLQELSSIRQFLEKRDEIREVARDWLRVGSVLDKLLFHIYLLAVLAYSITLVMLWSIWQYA

[2] = biological target: T2, Gastrin/cholecystokinin type B receptor (Homo sapiens, UniProt P32239)
T2 sequence (P32239 whole entry): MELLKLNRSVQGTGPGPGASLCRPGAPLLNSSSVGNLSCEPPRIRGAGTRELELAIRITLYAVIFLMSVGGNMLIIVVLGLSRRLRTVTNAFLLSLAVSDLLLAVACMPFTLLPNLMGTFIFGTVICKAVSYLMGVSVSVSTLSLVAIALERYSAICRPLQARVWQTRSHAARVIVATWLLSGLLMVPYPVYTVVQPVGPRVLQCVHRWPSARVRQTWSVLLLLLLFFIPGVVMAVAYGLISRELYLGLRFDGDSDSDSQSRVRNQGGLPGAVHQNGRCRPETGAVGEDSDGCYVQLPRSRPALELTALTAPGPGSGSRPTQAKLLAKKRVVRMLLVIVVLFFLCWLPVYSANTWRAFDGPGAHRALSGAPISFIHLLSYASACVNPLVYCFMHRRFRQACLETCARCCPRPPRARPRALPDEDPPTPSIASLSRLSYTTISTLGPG

[3] = biological target: Cannabinoid receptor 1 (Homo sapiens, UniProt P21554); format: functional, cell-based
Chain of Cannabinoid receptor 1 (P21554 whole entry): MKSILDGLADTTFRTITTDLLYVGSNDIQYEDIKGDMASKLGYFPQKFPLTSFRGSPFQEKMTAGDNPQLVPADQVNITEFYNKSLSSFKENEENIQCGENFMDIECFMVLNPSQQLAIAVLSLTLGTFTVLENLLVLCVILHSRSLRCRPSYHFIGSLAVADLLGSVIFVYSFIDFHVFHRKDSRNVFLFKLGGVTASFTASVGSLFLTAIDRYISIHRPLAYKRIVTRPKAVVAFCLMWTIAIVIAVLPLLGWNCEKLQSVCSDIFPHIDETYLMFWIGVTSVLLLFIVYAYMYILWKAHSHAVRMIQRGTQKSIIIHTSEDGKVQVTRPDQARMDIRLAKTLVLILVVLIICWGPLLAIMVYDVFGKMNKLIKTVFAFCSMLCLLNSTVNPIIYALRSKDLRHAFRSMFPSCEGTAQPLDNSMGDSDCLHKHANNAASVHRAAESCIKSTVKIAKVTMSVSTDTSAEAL

[4] = biological target: Growth hormone secretagogue receptor type 1 (Homo sapiens, UniProt Q92847)
Chain of Growth hormone secretagogue receptor type 1 (Q92847 whole entry): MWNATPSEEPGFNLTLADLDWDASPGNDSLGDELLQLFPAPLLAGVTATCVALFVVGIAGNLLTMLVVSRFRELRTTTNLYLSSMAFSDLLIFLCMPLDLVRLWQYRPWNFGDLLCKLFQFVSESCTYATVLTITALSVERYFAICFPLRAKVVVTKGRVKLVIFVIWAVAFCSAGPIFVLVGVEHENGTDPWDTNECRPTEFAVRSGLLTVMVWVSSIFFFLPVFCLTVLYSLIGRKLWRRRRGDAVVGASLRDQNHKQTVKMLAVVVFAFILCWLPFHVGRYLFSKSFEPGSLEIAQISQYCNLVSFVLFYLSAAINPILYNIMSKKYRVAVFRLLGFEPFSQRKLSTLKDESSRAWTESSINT

[5] = biological target: Melanocortin receptor 4 (Homo sapiens, UniProt P32245)
Chain of Melanocortin receptor 4 (P32245 whole entry): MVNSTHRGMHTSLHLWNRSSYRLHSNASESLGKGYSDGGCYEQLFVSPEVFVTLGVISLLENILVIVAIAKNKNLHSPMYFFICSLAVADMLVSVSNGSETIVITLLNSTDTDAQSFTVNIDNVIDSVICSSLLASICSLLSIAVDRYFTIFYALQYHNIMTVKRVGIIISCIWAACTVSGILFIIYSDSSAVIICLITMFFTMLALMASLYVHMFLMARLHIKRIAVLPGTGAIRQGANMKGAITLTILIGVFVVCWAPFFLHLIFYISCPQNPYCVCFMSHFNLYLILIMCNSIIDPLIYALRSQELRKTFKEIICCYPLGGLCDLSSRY

[6] = biological target: T3, Alpha-2A adrenergic receptor (Homo sapiens, UniProt P08913); format: functional, cell-based
T3 sequence (P08913 whole entry): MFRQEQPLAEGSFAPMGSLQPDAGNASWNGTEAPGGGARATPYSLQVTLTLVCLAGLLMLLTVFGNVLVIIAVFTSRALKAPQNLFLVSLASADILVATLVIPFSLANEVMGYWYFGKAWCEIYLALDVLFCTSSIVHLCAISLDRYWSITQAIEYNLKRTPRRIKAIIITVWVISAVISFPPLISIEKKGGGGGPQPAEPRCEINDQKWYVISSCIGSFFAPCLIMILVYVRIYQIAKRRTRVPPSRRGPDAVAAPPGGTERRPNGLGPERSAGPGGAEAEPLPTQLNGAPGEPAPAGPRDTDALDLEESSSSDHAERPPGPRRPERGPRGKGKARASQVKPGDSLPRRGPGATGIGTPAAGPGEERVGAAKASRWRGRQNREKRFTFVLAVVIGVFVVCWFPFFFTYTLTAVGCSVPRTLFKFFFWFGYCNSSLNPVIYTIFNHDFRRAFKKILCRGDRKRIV

[7] = biological target: 5-hydroxytryptamine receptor 2B (Homo sapiens, UniProt P41595); format: functional, cell-based
Chain of 5-hydroxytryptamine receptor 2B (P41595 whole entry): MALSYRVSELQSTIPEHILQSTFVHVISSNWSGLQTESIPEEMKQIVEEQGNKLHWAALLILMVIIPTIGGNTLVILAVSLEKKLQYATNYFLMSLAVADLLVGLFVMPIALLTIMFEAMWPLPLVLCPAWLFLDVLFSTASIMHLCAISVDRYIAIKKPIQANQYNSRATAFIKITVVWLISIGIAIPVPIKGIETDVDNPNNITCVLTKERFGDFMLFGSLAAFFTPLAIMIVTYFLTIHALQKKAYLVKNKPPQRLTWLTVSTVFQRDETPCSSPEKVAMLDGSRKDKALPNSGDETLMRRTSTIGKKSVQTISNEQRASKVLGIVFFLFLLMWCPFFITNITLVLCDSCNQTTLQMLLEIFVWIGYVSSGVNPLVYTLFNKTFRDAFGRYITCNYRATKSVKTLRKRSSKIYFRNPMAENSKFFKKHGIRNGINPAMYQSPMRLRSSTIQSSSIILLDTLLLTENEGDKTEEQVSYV

[8] = biological target: T4, Thromboxane A2 receptor (Homo sapiens, UniProt P21731)
T4 sequence (P21731 whole entry): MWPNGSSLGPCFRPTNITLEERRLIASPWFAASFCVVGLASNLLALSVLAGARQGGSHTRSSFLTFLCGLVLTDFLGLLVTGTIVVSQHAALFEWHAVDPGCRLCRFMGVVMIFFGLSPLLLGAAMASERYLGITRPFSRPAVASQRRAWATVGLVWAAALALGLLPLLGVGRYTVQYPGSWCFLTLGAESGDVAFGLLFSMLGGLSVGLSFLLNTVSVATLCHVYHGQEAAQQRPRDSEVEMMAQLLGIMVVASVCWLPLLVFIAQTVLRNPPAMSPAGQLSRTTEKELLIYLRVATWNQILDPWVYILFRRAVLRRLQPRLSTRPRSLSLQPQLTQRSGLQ

[9] = biological target: Sodium-dependent dopamine transporter (Homo sapiens, UniProt Q01959)
Chain of Sodium-dependent dopamine transporter (Q01959 whole entry): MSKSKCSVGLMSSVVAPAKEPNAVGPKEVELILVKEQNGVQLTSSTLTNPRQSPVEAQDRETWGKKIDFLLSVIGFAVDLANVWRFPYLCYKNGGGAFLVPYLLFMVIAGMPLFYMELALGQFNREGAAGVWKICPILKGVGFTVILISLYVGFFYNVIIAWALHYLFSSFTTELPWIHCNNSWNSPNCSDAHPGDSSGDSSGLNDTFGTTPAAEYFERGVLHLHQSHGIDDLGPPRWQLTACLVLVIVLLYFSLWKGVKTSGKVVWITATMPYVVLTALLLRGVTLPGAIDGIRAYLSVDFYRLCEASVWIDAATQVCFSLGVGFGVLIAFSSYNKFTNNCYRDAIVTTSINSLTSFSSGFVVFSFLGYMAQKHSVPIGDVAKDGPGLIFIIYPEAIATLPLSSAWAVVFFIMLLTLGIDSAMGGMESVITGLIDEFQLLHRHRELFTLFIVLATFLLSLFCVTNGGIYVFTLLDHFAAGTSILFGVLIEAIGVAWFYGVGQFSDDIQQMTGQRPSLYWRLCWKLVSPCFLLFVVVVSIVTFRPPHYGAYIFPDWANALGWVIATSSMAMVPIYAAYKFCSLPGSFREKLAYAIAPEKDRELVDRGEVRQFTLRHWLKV

[10] = biological target: Mu-type opioid receptor (Homo sapiens, UniProt P35372); assay: biochemical; format: functional
Chain of Mu-type opioid receptor (P35372 whole entry): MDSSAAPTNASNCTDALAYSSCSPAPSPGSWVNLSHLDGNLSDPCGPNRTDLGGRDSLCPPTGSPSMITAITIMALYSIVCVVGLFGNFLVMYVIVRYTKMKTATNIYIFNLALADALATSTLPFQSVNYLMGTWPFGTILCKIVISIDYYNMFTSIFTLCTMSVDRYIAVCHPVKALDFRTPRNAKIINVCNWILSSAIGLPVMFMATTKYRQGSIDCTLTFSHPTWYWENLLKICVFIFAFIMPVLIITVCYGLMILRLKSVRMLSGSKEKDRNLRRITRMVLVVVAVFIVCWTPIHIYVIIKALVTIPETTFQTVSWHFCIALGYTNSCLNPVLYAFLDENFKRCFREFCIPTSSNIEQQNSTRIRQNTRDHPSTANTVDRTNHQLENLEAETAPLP

[11] = biological target: T5, Muscarinic acetylcholine receptor M1 (Homo sapiens, UniProt P11229); format: functional
T5 sequence (P11229 whole entry): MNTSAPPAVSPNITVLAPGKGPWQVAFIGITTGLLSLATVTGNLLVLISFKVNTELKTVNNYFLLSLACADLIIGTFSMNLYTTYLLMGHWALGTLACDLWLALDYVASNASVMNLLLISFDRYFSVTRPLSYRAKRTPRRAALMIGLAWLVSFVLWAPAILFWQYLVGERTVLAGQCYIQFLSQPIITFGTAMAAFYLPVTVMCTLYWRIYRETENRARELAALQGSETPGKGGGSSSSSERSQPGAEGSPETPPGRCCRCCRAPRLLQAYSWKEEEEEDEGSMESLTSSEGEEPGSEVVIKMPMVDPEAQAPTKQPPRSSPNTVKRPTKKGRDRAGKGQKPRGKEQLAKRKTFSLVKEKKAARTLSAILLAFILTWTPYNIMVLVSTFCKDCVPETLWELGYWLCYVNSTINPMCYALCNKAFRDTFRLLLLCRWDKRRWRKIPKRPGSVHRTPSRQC

[12] = biological target: Neuronal acetylcholine receptor subunit alpha-4 (Homo sapiens, UniProt P43681)
Chain of Neuronal acetylcholine receptor subunit alpha-4 (P43681 whole entry): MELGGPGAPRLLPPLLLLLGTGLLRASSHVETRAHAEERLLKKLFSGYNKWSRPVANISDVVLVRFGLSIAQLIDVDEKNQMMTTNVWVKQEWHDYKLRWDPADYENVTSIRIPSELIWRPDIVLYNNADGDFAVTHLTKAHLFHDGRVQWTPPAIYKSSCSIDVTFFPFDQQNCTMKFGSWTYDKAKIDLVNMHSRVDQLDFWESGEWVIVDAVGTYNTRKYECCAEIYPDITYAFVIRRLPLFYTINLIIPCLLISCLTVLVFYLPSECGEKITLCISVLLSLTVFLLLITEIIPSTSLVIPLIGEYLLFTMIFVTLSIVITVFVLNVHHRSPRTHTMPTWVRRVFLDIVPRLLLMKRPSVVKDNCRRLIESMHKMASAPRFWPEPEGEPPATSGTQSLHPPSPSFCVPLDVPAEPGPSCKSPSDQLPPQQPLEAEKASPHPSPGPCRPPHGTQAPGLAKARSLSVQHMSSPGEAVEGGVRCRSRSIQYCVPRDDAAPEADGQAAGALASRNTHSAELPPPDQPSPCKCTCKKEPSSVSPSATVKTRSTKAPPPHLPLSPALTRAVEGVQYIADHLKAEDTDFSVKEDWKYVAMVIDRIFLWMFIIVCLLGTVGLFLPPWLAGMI

[13] = biological target: Histamine H3 receptor (Homo sapiens, UniProt Q9Y5N1)
[14] = biological target: Histamine H1 receptor (Homo sapiens, UniProt P35367)
Chain of Histamine H1 receptor (P35367 whole entry): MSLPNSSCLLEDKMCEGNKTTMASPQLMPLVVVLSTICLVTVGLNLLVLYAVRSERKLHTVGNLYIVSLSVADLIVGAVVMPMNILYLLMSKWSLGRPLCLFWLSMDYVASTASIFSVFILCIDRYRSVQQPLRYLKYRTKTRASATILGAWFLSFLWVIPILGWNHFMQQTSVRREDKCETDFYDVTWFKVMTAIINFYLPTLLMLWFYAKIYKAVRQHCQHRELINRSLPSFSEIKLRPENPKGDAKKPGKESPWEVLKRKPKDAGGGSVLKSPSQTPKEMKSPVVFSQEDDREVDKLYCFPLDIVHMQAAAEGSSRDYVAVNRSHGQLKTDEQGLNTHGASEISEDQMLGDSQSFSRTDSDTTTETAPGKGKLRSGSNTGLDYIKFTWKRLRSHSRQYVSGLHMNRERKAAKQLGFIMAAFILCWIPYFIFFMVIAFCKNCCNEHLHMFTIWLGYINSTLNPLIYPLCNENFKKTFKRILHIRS

[15] = biological target: 5-hydroxytryptamine receptor 2A (Homo sapiens, UniProt P28223); format: functional, cell-based
Chain of 5-hydroxytryptamine receptor 2A (P28223 whole entry): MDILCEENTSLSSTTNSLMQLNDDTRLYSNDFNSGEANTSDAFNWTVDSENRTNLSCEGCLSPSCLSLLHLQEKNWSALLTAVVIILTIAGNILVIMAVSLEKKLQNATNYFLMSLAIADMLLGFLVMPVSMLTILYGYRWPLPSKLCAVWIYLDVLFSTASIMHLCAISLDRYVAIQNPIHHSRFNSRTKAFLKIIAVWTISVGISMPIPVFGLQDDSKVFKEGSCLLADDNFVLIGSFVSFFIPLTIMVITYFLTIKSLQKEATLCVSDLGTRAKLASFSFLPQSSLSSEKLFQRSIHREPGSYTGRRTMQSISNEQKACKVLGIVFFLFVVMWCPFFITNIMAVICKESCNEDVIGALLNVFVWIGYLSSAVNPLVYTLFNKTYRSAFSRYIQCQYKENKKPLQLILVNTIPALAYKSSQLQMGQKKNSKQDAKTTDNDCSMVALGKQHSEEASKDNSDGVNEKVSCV

[16] = biological target: Muscarinic acetylcholine receptor M3 (Homo sapiens, UniProt P20309)
Chain of Muscarinic acetylcholine receptor M3 (P20309 whole entry): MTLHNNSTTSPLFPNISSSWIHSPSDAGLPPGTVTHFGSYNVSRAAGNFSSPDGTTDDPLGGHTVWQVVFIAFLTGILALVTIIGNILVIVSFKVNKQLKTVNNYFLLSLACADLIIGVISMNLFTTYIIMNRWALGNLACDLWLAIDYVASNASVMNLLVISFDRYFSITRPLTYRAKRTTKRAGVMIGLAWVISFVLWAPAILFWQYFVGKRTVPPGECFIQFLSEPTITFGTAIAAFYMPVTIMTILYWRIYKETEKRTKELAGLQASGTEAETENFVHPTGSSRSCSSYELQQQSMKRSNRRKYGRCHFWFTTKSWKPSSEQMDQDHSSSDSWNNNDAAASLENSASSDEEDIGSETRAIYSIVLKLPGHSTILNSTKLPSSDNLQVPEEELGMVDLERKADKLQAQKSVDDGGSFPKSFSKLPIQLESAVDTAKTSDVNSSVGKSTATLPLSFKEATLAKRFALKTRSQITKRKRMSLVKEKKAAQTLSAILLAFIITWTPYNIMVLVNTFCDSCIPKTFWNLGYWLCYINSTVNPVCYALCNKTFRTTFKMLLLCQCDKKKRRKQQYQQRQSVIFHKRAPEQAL
Further: assay procedure not described here.

Row | SMILES | AC50 [1] | AC50 [2] | AC50 [3] | AC50 [4] | AC50 [5] | AC50 [6] | AC50 [7] | AC50 [8] | AC50 [9] | AC50 [10] | AC50 [11] | AC50 [12] | AC50 [13] | AC50 [14] | AC50 [15] | AC50 [16]
1 | Cc1c(OCC(F)(F)F)ccnc1C[S+]([O-])c1nc2ccccc2[nH]1 (centres undefined) [LANSOPRAZOLE] | 2.3 µM | 22 µM | > 30 µM | 9.67 µM | > 30 µM | > 10 µM | > 10 µM | 3.46 µM | > 10 µM | 4.2 µM | – | – | – | – | – | –
2 | Cc1nnc2n1-c1ccc(Cl)cc1C(c1ccccc1Cl)=NC2 [TRIAZOLAM] | > 30 µM | > 30 µM | > 30 µM | > 30 µM | > 30 µM | > 10 µM | > 10 µM | > 30 µM | > 30 µM | – | > 10 µM | > 10 µM | > 10 µM | > 10 µM | > 30 µM | > 30 µM
3 | COc1ccc(CCNCC(O)COc2cccc(C)c2)cc1OC (centres undefined) [BEVANTOLOL] | > 30 µM | – | > 30 µM | > 10 µM | > 10 µM | > 10 µM | 14 µM | > 10 µM | 16.2 µM | > 30 µM | > 10 µM | > 10 µM | – | > 10 µM | > 10 µM | > 30 µM
